Earlier results on two compounds are cited in patent publication EP0712633A1, “Pharmaceutical compositions for topical application” (Blank, Izhak, priority 1994, dated 1996).

The conditions of this data set: 6-carboxylfluorescein.

In the case of `OCCS` [2-mercaptoethanol], the “increase of plasma levels of the dye compared with a control” value (0.1% w/v in conjunction with sodium dodecyl sulfate 0.05% w/v) is 40 times. In the case of `O=C(O)CS` [calcium thioglycolate], the “increase of penetration compared to the control” value (pretreatment of the skin with 4%) is 9 times.
